What was measured:
[1] = biological target: FGFR2 (Homo sapiens (Human), UniProt P21802); experiment: FGFR2 Biochemical Caliper Assay
Description: Compounds of the present invention were also tested in a FGFR2 Biochemical Caliper Assay. Compounds were prepared in 10 mM DMSO solution and serially diluted into 11 concentrations by 3-fold dilution. […] 5 uL of ATP solution (100 uM) was added to start the reaction and the plate was incubated for 90 minutes, then 70 uL of stopping buffer (0.5M EDTA) was added to terminate the reaction. Each well was analyzed using EZ reader.

[2] = system: SNU16 cells; experiment: SNU16 Cancer Cell Line Proliferation Assay; assay type: cell-based; settings: Homo sapiens; SNU-16 cells
Description: Compounds of the present invention were also tested in a SNU16 Cancer Cell Line Proliferation Assay, Test compounds were prepared in a 10 mM DMSO stock solution. 45 uL of stock solution was transferred to a 384 well plate, and a 3-fold 11-point dolution was performed. SNU16 cells in a 384 well cell culture plate were seeded and incubated at 37 degrees for 24 hours. 40 nL of each concentration of compound was transferred from the compound plate to a corresponding well in the cell culture plate by Echo550 liquid handler. The plates were incubated for 96 hours, then equilibrated to room temperature for 15 minutes. 20 uL of CellTiter Glo reagent is added into each well, then the plate was shaken gently for 30 minutes at room temperature. Chemiluminescence was then read on an EnVision reader.

Chain of FGFR2 (P21802 22-821): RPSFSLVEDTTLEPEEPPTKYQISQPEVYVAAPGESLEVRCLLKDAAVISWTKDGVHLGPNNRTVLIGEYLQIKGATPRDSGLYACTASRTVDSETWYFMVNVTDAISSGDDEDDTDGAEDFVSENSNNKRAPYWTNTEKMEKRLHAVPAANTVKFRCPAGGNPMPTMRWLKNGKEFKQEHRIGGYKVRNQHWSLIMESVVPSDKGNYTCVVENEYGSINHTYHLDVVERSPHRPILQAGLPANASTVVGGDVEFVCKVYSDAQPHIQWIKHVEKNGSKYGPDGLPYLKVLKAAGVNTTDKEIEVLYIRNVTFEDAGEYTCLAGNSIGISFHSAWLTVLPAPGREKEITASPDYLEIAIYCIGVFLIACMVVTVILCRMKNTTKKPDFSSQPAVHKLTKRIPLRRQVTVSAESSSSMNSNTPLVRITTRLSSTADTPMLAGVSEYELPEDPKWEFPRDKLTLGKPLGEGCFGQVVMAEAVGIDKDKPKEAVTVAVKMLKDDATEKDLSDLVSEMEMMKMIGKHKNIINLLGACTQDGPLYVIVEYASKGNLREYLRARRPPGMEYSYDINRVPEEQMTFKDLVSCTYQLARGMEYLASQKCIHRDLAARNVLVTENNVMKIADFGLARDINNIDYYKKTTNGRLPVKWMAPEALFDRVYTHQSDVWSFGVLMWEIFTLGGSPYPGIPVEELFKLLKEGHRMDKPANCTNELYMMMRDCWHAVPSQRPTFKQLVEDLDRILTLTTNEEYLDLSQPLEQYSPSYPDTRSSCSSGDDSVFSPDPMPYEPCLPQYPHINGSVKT

Structure (SMILES) | IC50 [1] [nM] | IC50 [2] [nM]
C=C(C)C(=O)Nc1ccc(-c2c(-c3ccc([S+]([O-])C4CC4)cc3)c3c(N)ncnc3n2C)cc1 (centres unmarked) [Example 160] | 250 to 1000 | 250 to 1000
C=CC(=O)Nc1ccc(-c2c(-c3ccc(C(=O)N4CCCC4)c(OC)c3)c3c(N)ncnc3n2C)cc1 [Example 161] | < 100 | ≤ 100
C=C(C)C(=O)Nc1ccc(-c2c(-c3cncc(N4CCOCC4)c3)c3c(N)ncnc3n2C)cc1 [Example 166] | 1000 to 100000 | 250 to 1000
C=C(C)C(=O)Nc1ccc(-c2c(-c3ccc(Oc4cccc(F)c4)nc3)c3c(N)ncnc3n2C)cc1 [Example 167] | 1000 to 100000 | 100 to 250
C=C(C)C(=O)Nc1ccc(-c2c(-c3ccc(Oc4cccc(C(F)(F)F)c4)nc3)c3c(N)ncnc3n2C)cc1 [Example 169] | 1000 to 100000 | 250 to 1000
C=CC(=O)Nc1ccc(-c2c(C3=CCC(NC(C)=O)CC3)c3c(N)ncnc3n2C)cc1 (centres unmarked) [Example 171] | 100 to 250 | 250 to 1000
C=CC(=O)Nc1ccc(-c2c(-c3ccc(OC4CCOC4)c(C)c3)c3c(N)ncnc3n2C)cc1 (centres unmarked) [Example 174] | < 100 | ≤ 100
C=C(C)C(=O)Nc1ccc(-c2c(-c3ccc(C(=O)N4CCOCC4)cc3)c3c(N)ncnc3n2C)cc1 [Example 176] | 1000 to 100000 | 250 to 1000
C=C(C)C(=O)Nc1ccc(-c2c(-c3ccc4sc(C(=O)N(C)C)cc4c3)c3c(N)ncnc3n2C)cc1 [Example 180] | 250 to 1000 | 100 to 250
C=C(C)C(=O)Nc1ccc(-c2c(-c3ccc(N4CCCCC4=O)cc3)c3c(N)ncnc3n2C)cc1 [Example 186] | 1000 to 100000 | 250 to 1000
C=C(C)C(=O)Nc1ccc(-c2c(-c3ccc(CN4CCOCC4=O)cc3)c3c(N)ncnc3n2C)cc1 [Example 188] | 1000 to 100000 | 250 to 1000
C=C(C)C(=O)Nc1ccc(-c2c(-c3ccc(C(=O)N4CCCCC4C)cc3)c3c(N)ncnc3n2C)cc1 (centres unmarked) [Example 189] | < 100 | ≤ 100
C=C(C)C(=O)Nc1ccc(-c2c(-c3ccc(C(=O)N4CCC(C)CC4)cc3)c3c(N)ncnc3n2C)cc1 [Example 190] | 1000 to 100000 | 250 to 1000
C=C(C)C(=O)Nc1ccc(-c2c(-c3ccc(N4CCNC4=O)cc3)c3c(N)ncnc3n2C)cc1 [Example 194] | 250 to 1000 | 250 to 1000
C=C(C)C(=O)Nc1ccc(-c2c(C3CCN(C(=O)N4CCCC4)CC3)c3c(N)ncnc3n2C)cc1 [Example 197] | 1000 to 100000 | 250 to 1000
C=C(C)C(=O)Nc1ccc(-c2c(-c3ccc(-c4ccon4)cc3)c3c(N)ncnc3n2C)cc1 [Example 199] | 250 to 1000 | 250 to 1000
C=C(C)C(=O)Nc1ccc(-c2c(C3=CCC(C(=O)NC)CC3)c3c(N)ncnc3n2C)cc1 (centres unmarked) [Example 201] | 1000 to 100000 | 250 to 1000
C=C(C)C(=O)Nc1ccc(-c2c(-c3ccc(OC4CCOC4)c(C)c3)c3c(N)ncnc3n2C)cc1 (centres unmarked) [Example 202] | 250 to 1000 | 100 to 250
CN(C)C/C=C/C(=O)Nc1ccc(-c2c(-c3ccc(C(=O)N4CCCC4)cc3)c3c(N)ncnc3n2C)cc1 [Example 206] | < 100 | 100 to 250
C=C(C)C(=O)Nc1ccc(-c2c(-c3ccc4c(c3)CCCN4C)c3c(N)ncnc3n2C)cc1 [Example 207] | 250 to 1000 | 250 to 1000
C=C(C)C(=O)Nc1c(F)cc(-c2c(-c3ccc(C(=O)N4CCCC4)cc3)c3c(N)ncnc3n2C)cc1F [Example 210] | 1000 to 100000 | 250 to 1000
C=CC(=O)Nc1ccc(-c2c(-c3ccc4c(c3)CCCN4C)c3c(N)ncnc3n2C)cc1 [Example 211] | < 100 | ≤ 100
C=C(C)C(=O)Nc1ccc(-c2c(-c3ccc(C(=O)NC4CCCC4)cc3)c3c(N)ncnc3n2C)cc1 [Example 212] | < 100 | ≤ 100
C=CC(=O)Nc1ccc(-c2c(-c3ccc(C(=O)N4CCCC4)cc3)c3c(N)ncnc3n2C)c(F)c1 [Example 213] | < 100 | ≤ 100
C=C(C)C(=O)Nc1ccc(-c2c(-c3ccc(C(=O)N4CCCC4)cc3)c3c(N)ncnc3n2C)cc1F [Example 215] | 250 to 1000 | 250 to 1000
C=CC(=O)Nc1ccc(-c2c(-c3ccc(ON4CCCC4)cc3)c3c(N)ncnc3n2C)c(C)c1 [Example 216] | < 100 | ≤ 100
C=CC(=O)Nc1ccc(-c2c(-c3ccc(C(=O)N4CCCC4)cc3)c3c(N)ncnc3n2C)cc1F [Example 217] | < 100 | ≤ 100
C=CC(=O)Nc1c(F)cc(-c2c(-c3ccc(C(=O)N4CCCC4)cc3)c3c(N)ncnc3n2C)cc1F [Example 219] | < 100 | ≤ 100

Structure (SMILES) | IC50 [1] [nM] | IC50 [2] [nM]
C=CC(=O)Nc1ccc(-c2c(-c3ccc(C(=O)N4CCCC4)cc3)c3c(N)ncnc3n2C)cc1C [Example 220] | < 100 | ≤ 100
C=C(C)C(=O)Nc1ccc(-c2c(-c3ccc(OC4CCCC4)cc3)c3c(N)ncnc3n2C)cc1 [Example 223] | < 100 | ≤ 100
C=C(C)C(=O)Nc1ccc(-c2c(-c3ccc(NC(=O)C4CCCC4)cc3)c3c(N)ncnc3n2C)cc1 [Example 224] | < 100 | ≤ 100
C=C(C)C(=O)Nc1ccc(-c2c(-c3ccc(C(=O)N(C)C4CCC4)cc3)c3c(N)ncnc3n2C)cc1 [Example 227] | 100 to 250 | 100 to 250
C=C(C)C(=O)Nc1ccc(-c2c(-c3ccc(C(=O)N4CCC5CC5C4)cc3)c3c(N)ncnc3n2C)cc1 (centres unmarked) [Example 228] | < 100 | ≤ 100
C=C(C)C(=O)Nc1ccc(-c2c(-c3ccc(C(=O)N4CCC5CC54)cc3)c3c(N)ncnc3n2C)cc1 (centres unmarked) [Example 229] | < 100 | ≤ 100
C=C(C)C(=O)Nc1ccc(-c2c(-c3ccc(C(=O)N4CCCCCC4)cc3)c3c(N)ncnc3n2C)cc1 [Example 230] | < 100 | ≤ 100
C=C(C)C(=O)Nc1ccc(-c2c(-c3ccc(C(=O)N(C)C4CCCC4)cc3)c3c(N)ncnc3n2C)cc1 [Example 233] | 100 to 250 | 100 to 250
C=C(C)C(=O)Nc1ccc(-c2c(-c3ccc(C(=O)N4CCC5(CC5)C4)cc3)c3c(N)ncnc3n2C)cc1 [Example 234] | < 100 | ≤ 100
C=C(C)C(=O)Nc1ccc(-c2c(-c3ccc(C(=O)N4CCCCC4=O)cc3)c3c(N)ncnc3n2C)cc1 [Example 236] | 100 to 250 | 100 to 250
C=C(C)C(=O)Nc1ccc(-c2c(-c3ccc(C(=O)N4CC5CC5C4)cc3)c3c(N)ncnc3n2C)cc1 (centres unmarked) [Example 237] | 100 to 250 | 100 to 250
C=C(C)C(=O)Nc1ccc(-c2c(-c3ccc(C(=O)N4CC5CCC4CO5)cc3)c3c(N)ncnc3n2C)cc1 (centres unmarked) [Example 238] | 250 to 1000 | 250 to 1000
C=C(C)C(=O)Nc1ccc(-c2c(-c3ccc(C(=O)N4CCCC5CC54)cc3)c3c(N)ncnc3n2C)cc1 (centres unmarked) [Example 239] | < 100 | ≤ 100
C=C(C)C(=O)Nc1ccc(-c2c(-c3ccc(C(=O)N4CC5(CCCC5)C4)cc3)c3c(N)ncnc3n2C)cc1 [Example 241] | 1000 to 100000 | 250 to 1000
C=C(C)C(=O)Nc1ccc(-c2c(-c3ccc(Cn4cccn4)cc3)c3c(N)ncnc3n2C)cc1 [Example 244] | 1000 to 100000 | 250 to 1000
C=C(C)C(=O)Nc1ccc(-c2c(-c3ccc(C(=O)N4CCC5(CCC5)C4)cc3)c3c(N)ncnc3n2C)cc1 [Example 245] | 250 to 1000 | 250 to 1000
C=C(C)C(=O)Nc1ccc(-c2c(-c3ccc(C(=O)N4CC5CCCCC5C4)cc3)c3c(N)ncnc3n2C)cc1 (centres unmarked) [Example 246] | 250 to 1000 | 100 to 250
C=C(C)C(=O)Nc1ccc(-c2c(-c3ccc(C(=O)NCC(F)(F)F)cc3)c3c(N)ncnc3n2C)cc1 [Example 248] | < 100 | ≤ 100
C=C(C)C(=O)Nc1ccc(-c2c(-c3ccc(C(=O)N4CC5COCC5C4)cc3)c3c(N)ncnc3n2C)cc1 (centres unmarked) [Example 249] | 250 to 1000 | 250 to 1000
C=C(C)C(=O)Nc1ccc(-c2c(-c3ccc(C(=O)N4CCCC(C)C4)cc3)c3c(N)ncnc3n2C)cc1 (centres unmarked) [Example 255] | < 100 | ≤ 100
C=C(C)C(=O)Nc1ccc(-c2c(-c3ccc(C(=O)Nc4ncccn4)cc3)c3c(N)ncnc3n2C)cc1 [Example 257] | 250 to 1000 | 250 to 1000
C=C(C)C(=O)Nc1ccc(-c2c(-c3ccc(C(=O)N4CC5CCC4C5)cc3)c3c(N)ncnc3n2C)cc1 (centres unmarked) [Example 258] | < 100 | ≤ 100
C=CC(=O)Nc1ccc(-c2c(-c3ccc(Cn4nc(C)cc4C)cc3)c3c(N)ncnc3n2C)cc1 [Example 260] | < 100 | ≤ 100
C=C(C)C(=O)Nc1ccc(-c2c(-c3ccc(C(=O)N4CC5CCC4CC5)cc3)c3c(N)ncnc3n2C)cc1 [Example 262] | < 100 | ≤ 100
C=C(C)C(=O)Nc1ccc(-c2c(-c3ccc(Cn4cc(C)cn4)cc3)c3c(N)ncnc3n2C)cc1 [Example 263] | 1000 to 100000 | 250 to 1000
C=C(C)C(=O)Nc1ccc(-c2c(-c3ccc(C(=O)N4CCCC5(CC5)C4)cc3)c3c(N)ncnc3n2C)cc1 [Example 264] | 100 to 250 | ≤ 100
C=C(C)C(=O)Nc1ccc(-c2c(-c3ccc(C(=O)NC4CCC4)cc3)c3c(N)ncnc3n2C)cc1 [Example 265] | < 100 | ≤ 100

— patent US11780845B2 (Relay Therapeutics, Inc., priority 2019, dated 2023)
